“Also recorded” adds a separate entry of the source. Like-named read-outs stand apart in the source and are kept apart here. Marks after values point to notes of the source that are not given here.
Tests used:
7PA2 cells = assay type: cell-based, Chinese Hamster
Protocol: (§1) Preparation of conditioned media: CHO— or 7PA2 cells were grown to ˜90% confluency. The cells were washed 1× in serum-free DMEM, then incubated overnight (˜15 hrs) in 4 ml/10 cm dish in serum-free DMEM, pen/strep, 1-glutamine with/without AZD-103. The following day, the conditioned media (CM) was collected, spun at 1000×g and treated with complete protease inhibitors (in mg/ml 1 leupeptin, 1 pepstatin, 0.1 aprotinin, 40 EDTA, and 2 mM 1/10 phenantroline) for biochemistry experiments or cell culture compatible protease inhibitors (Sigma P1860 1:1000) for electrophysiology experiments. The CM was stored at −80° C. until sufficient volumes were collected to complete a “batch”—typically ˜300 ml. […] The resulting concentrate was pooled, aliquoted in 1 ml fractions, and stored at −80° C. […] Therefore, for any given set of experiments (i.e. dose response curve, time curve, etc), a single batch is prepared and compared to 7PA2 alone within that batch.

Aβ oligomers [1] = settings: rat, in vivo
Aβ oligomers [2] = assay type: in vivo; settings: rat
Excerpt: The Aβ oligomers are naturally produced by cells transfected with genes that over-produce the amyloid precursor protein (APP). APP is cleaved by secretase(s) and the cells construct the oligomeric Aβ into molecules ranging from 2 to 12 amyloid proteins (2 mer to 12 mer) and secrete it into the culture medium (CM) of cultured cells. In addition, oligomeric Aβ is extracted from brain homogenate taken from transgenic mice (Tg2576) transfected with the Swedish APP mutation. […] These purified oligomeric forms of Aβ, at physiological concentrations relevant to those found in AD, are injected into the rat's lateral ventricle through an indwelling cannula while the animals are awake and moving. Two hours after injection the rats are tested under sensitive cognitive assay.
The assay, the Alternating Lever Cyclic Ratio (ALCR) test, has proven to be much more sensitive than previously published methods for measuring drug effects on cognitive function. In this task, rats must learn a complex sequence of lever-pressing requirements in order to earn food reinforcement in a two-lever experimental chamber. Subjects must alternate between two levers by switching to the other lever after pressing the first lever enough to get food reward. The exact number of presses required for each food reward changes, first increasing from 2 responses per food pellet up to 56 presses per food pellet, then decreasing back to 2 responses per pellet. Intermediate values are based on the quadratic function, x^2−x. One cycle is an entire ascending and descending sequence of these lever press requirements (e.g., 2, 6, 12, 20, 30, 42, 56, 56, 42, 30, 20, 12, 6, and 2 presses per food reward). Six such full cycles are presented during each daily session.
Oligomeric Aβ: Prepared from transfected Chinese Hamster Ovary Cells (7PA2 cells). These cells secrete oligomeric Aβ into the culture medium (CM) at physiological levels. Aβ oligomers was also derived from Tg2576 mouse brain and purified by size exclusion chromatography. Samples of oligomeric Aβ were characterized by Western Blot Analysis. Appropriate control compounds were produced and tested for each active Aβ oligomeric configuration. Rats: Forty (40) rats were trained under ALCR for approximately 3 months until their error rates are stable. Training sessions were conducted 5 days each week. Surgery: After training, all rats received a single 28 ga. cannula that was permanently affixed to the skull, and aimed at the lateral ventricle (divided equally between left and right). Rats were allowed 5 days to recover from surgery. Administration: In vivo administration of AZD103 to rats was performed by dissolving AZD103 into drinking water. Different concentrations were prepared, and the average daily water intake used to target specific average daily dose levels. These dose levels were therefore approximate. Testing: AZD 103 was tested against Aβ oligomers known to disrupt cognitive function. Two general procedures were incorporated. • 1. AZD 103 was incubated with the injectate medium containing Aβ oligomers prior to assessing it's affect on ALCR. Appropriate control injections were included un-incubated (untreated) Aβ oligomers as well as AZD 103 were injected ICV. • 2. Rats were treated with AZD 103, administered in drinking water, for at least 3-4 days prior to testing ICV injection of Aβ oligomers preparations known to affect cognitive function under ALCR.
Treatments were assessed in the following order: • 1. ICV 7PA2 CM alone • 2. ICV AZD 103 alone • 3. ICV ex vivo incubated 7PA2 CM with AZD 103 • All rats received treatments 1-3 in randomized order. • 4. ICV 7PA2 CM after 4 days treatment with PO AZD103 30 mg/kg/day. • 5. ICV 7PA2 CM after 4 days treatment with PO AZD103 100 mg/kg/day. • 6. ICV 7PA2 CM after 4 days treatment with PO AZD103 300 mg/kg/day. • 7. ICV 7PA2 CM after 4 days with no treatment. […]

synaptophysin = experiment: Synaptophysin quantification in CA1 region of the hippocampus; assay type: in vivo, mouse; settings: TgCRND8 mice; for increase of synaptophysin reactive boutons and cell bodies: vs untreated
Protocol: Synaptophysin immunohistochemical staining was performed on 3 evenly spaced saggital sections of paraformaldehyde-fixed treated and control mice. Sections were immunolabelled for synaptophysin with anti-synaptophysin IgG (1:40; Roche, Laval, PQ). Digital images were captured and analyzed as described above. Within each section, three randomly chosen 100 μm^2 areas of the CA1 region of the hippocampus were counted for synaptophysin reactive cell bodies and boutons. The results are expressed as the mean of the number of reactive bodies and boutons per 100 μm^2 [48, 49].

Aβ oligomers [3] = experiment: IP/Western blot of Aβ oligomers in 7PA2 conditioned media; assay type: cell-based, human
Protocol: as §1
IP/Western blots: 8 ml of 7PA2 CM were precleared with […] of protein A agarose for 30 min. The beads were spun down, and […] of the polyclonal anti-Aβ antibody R1282 was added to the supernatant with an additional 40 μl of protein A agarose. These samples were nutated at 4° C. overnight. The beads were washed with a series of buffers 0.5 STEN (sodium chloride, tris, EDTA, NP-40), SDS STEN, STEN. 2× tricine sample buffer was added to the washed beads, which were then boiled, centrifuged, and the resulting supernatant loaded onto 10-20% tricine gels. The proteins were then transferred to nitrocellulose, and probed with the anti-Aβ antibody 6E10.

Aβ42 = target: T1, Aβ42 (Homo sapiens, UniProt P05067); experiment: Plasma Aβ42 levels in TgCRND8 mice; assay type: in vivo, mouse; settings: TgCRND8 mice following 28 days of therapy at five months of age
T1 construct: from tissue; host or cells: hemi-brain homogenate of TgCRND8 transgenic mice

cerebral amyloid plaques = experiment: Cerebral amyloid burden (plaque number, area, size by immunohistochemistry); assay type: in vivo, mouse; settings: TgCRND8 mice
Protocol: Mice. […] This initial dosage was chosen based upon the dosage of myo-cyclohexanehexol (6-18 grams/day/adult or 86-257 mg/Kg/day) that is typically administered to human patients for various psychiatric disorders. […] A cohort of animals (n=10 mice per treatment arm) entered the study at five months of age, and outcomes were then analyzed after one month of treatment. The body weight, coat characteristics and in cage behaviour were monitored. Mannitol was used as a negative control for potential alterations in caloric intake. All experiments were performed according to the Canadian Council on Animal Care guidelines. Behavioural tests: Morris Water Maze testing was performed as previously described. After non-spatial pre-training, mice underwent place discrimination training for 5 days with 4-trials per day, followed by a cued visible platform to rule out general motivational, learning deficits and motor problems, and a probe trial to evaluate memory. […] Open field test for motor activity was preformed as described previously. Duration of walking, pausing and grooming were analyzed as indices of spontaneous locomotor activity. Sensorimotor function was examined with an Economex™ accelerating rotarod (Columbus Instruments, Columbus, Ohio), as described elsewhere. The rod was set to accelerate at a rate of 0.2 r.p.m./s, from an initial, constant speed of 5 r.p.m. Latency to fall was recorded in four daily trials, conducted at 30 min intervals. All mice were trained for seven days before testing. The test day performance score for each animal was obtained by summing its latency to fall over the four trials Cerebral amyloid burden. Brains were removed and one hemisphere was fixed in 4% paraformaldehyde and embedded in paraffin wax in the mid sagittal plane. To generate sets of systematic uniform random sections, 5 μm serial sections were collected across the entire hemisphere. Sets of sections at 50 μm intervals were used for analyses (10-14 sections/set). Plaques were identified after antigen retrieval with formic acid, and incubation with primary anti-Aβ antibody (Dako M-0872), followed by secondary antibody (Dako StreptABCcomplex/horseradish kit). End products were visualized with DAB and were counter-stained with luxol fast blue. Amyloid plaque burden was assessed with LecoIA-3001 image analysis software interfaced with Leica microscope and Hitachi KP-M1U CCD video camera. Openlab imaging software (Improvision, Lexington, Mass.) was then used to convert micrographs to binary images for plaque number and plaque area determinations. Vascular amyloid burden was defined as amyloid originating from or surrounding blood vessels and was analysed similarly. Plasma and Cerebral Aβ Content. Hemi-brain samples were homogenized in a buffered sucrose solution, followed by either 0.4% diethylamine/100 mM NaCl for soluble Aβ levels or cold formic acid for the isolation of total Aβ. After neutralization, the samples were diluted and analyzed for Aβ40 and Aβ42 using commercially available kits (BIOSOURCE International). Each hemisphere was analyzed in triplicate and the mean values±SEM reported. Western blot analyses were performed on all fractions using urea gels for Aβ species analyses. Aβ was detected using 6E10 (BIOSOURCE International) and Enhanced Chemiluminenscence (Amersham). Gliosis Quantitation. Five randomly selected, evenly spaced, sagittal sections were collected from paraformaldehyde-fixed and frozen hemispheres of treated and control mice. Sections were immunolabelled for astrocytes with anti-rat GFAP IgG2, (Dako; diluted 1:50) and for microglia with anti-rat CD68 IgG2b (Dako; 1:50).

TgCRND8 mice [4] = settings: mouse, in vivo
Protocol: Mice. […] This initial dosage was chosen based upon the dosage of myo-cyclohexanehexol (6-18 grams/day/adult or 86-257 mg/Kg/day) that is typically administered to human patients for various psychiatric disorders. […] A cohort of animals (n=10 mice per treatment arm) entered the study at five months of age, and outcomes were then analyzed after one month of treatment. The body weight, coat characteristics and in cage behaviour were monitored. Mannitol was used as a negative control for potential alterations in caloric intake. All experiments were performed according to the Canadian Council on Animal Care guidelines. Behavioural tests: Morris Water Maze testing was performed as previously described. […] Duration of walking, pausing and grooming were analyzed as indices of spontaneous locomotor activity. […] Latency to fall was recorded in four daily trials, conducted at 30 min intervals. […] Amyloid plaque burden was assessed with LecoIA-3001 image analysis software interfaced with Leica microscope and Hitachi KP-M1U CCD video camera. […] Vascular amyloid burden was defined as amyloid originating from or surrounding blood vessels and was analysed similarly. […] After neutralization, the samples were diluted and analyzed for Aβ40 and Aβ42 using commercially available kits (BIOSOURCE International). Each hemisphere was analyzed in triplicate and the mean values±SEM reported. […] Gliosis Quantitation. […]

TgCRND8 mice [5] = experiment: Morris Water Maze spatial reference memory test in TgCRND8 mice; assay type: in vivo, mouse; settings: for Spatial learning performance (Morris Water Maze) compared to untreated TgCRND8 littermates: oral treatment for 28 days from 5 months of age, tested at 6 months
[6] = ICV AZD103 alone, % of baseline errors
[7] = ICV Aβ oligomers incubated ex vivo with AZD103, % of baseline errors
[8] = ICV oligomers after 4 days p.o. 30 mg/kg/day in drinking water
[9] = ICV oligomers after 4 days p.o. 100 mg/kg/day in drinking water
[10] = ICV oligomers after 4 days p.o. 300 mg/kg/day in drinking water
[11] = 1.25 μM applied to 7PA2 CM (post-cond)
[12] = 28 day course at 5 months of age, vs untreated
[13] = 28 days treatment, 6 months of age

Sequence of Aβ oligomers (P05067 672-711 limits assumed): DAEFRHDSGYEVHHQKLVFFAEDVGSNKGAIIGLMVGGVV
T1 sequence (P05067 672-713 limits assumed): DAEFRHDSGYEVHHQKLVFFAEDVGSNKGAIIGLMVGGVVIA

1,3,5/2,4,6-(scyllo-) cyclohexanehexol [Scyllo-cyclohexanehexol]
toxicity (7PA2 cells, APPs expression, LTP in CHO— conditions) (7PA2 cells): No direct evidence of AZD-103 toxicity was observed
brain penetrance following oral dosing (Aβ oligomers [1]): sufficiently brain penetrant
performance in ALCR when administered without oligomers (Aβ oligomers [2]; ICV AZD103 alone): no impact on performance
Perseveration % errors (Aβ oligomers [2]; [6]): 99%
Switching % errors (Aβ oligomers [2]; [6]): 99%
Perseveration % errors (Aβ oligomers [2]; [7]): 100%
Switching % errors (Aβ oligomers [2]; [7]): 95%
Perseveration % errors (Aβ oligomers [2]; [8]): 120%
Switching % errors (Aβ oligomers [2]; [8]): 109%
Perseveration % errors (Aβ oligomers [2]; [9]): 120%
Switching % errors (Aβ oligomers [2]; [9]): 100%
Perseveration % errors (Aβ oligomers [2]; [10]): 99%
Switching % errors (Aβ oligomers [2]; [10]): 109%
number of synaptophysin reactive boutons and cell bodies in the CA1 region (synaptophysin; delayed treatment study): 2625±124 /100 μm^2
increase of synaptophysin reactive boutons and cell bodies (synaptophysin; delayed treatment study): 150%
number of synaptophysin reactive boutons and cell bodies in the CA1 region (synaptophysin; prophylactic study group): 2384±232 /100 μm^2
increase of synaptophysin reactive boutons and cell bodies (synaptophysin; prophylactic study group): 148%
Aβ dimer on Western blots (Aβ oligomers [3]; [11]): unaffected
Aβ trimer on Western blots (Aβ oligomers [3]; [11]): reduced the trimer
Aβ dimer and trimer levels measured absolutely and normalized to monomer (Aβ oligomers [3]; dose response, pre-cond and post-cond, all concentrations): appeared to reduce dimer and trimer levels
Plasma Aβ42 levels (Aβ42): 990 ± 73 pg/mL
percent area of the brain covered by plaques, reduction (cerebral amyloid plaques; [12]): 14±0.5%
plaque number reduction (cerebral amyloid plaques; [12]): 13±0.3%
plaque size reduction (cerebral amyloid plaques; [12]): 16±0.4%
Mean Plaque Size (cerebral amyloid plaques; [13]): 336 ± 6* μm^2
Total Plaque Area (cerebral amyloid plaques; [13]): 420027 ± 14986* μm^2
Total Plaque Count (cerebral amyloid plaques; [13]): 1260 ± 27
grooming or activity in the open field test (TgCRND8 mice [4]): no effect on grooming or activity
sensorimotor function (Rotarod), treated vs untreated TgCRND8 mice (TgCRND8 mice [4]): no difference
effects on cognition and pathology (TgCRND8 mice [5]; TgCRND8 mice, administered for 2 months, ending at 7 months of age): Sustained effects both on cognition and pathology were observed
Spatial learning performance (Morris Water Maze) compared to untreated TgCRND8 littermates (TgCRND8 mice [5]; TgCRND8 mice): significantly better behavioural performance compared to untreated TgCRND8 mice; also recorded: significantly better than untreated TgCRND8 littermates
% time in target quadrant (probe trial, alternate measure) (TgCRND8 mice [5]; separate cohort of TgCRND8 mice, data not shown): not statistically different from non-Tg littermates

OC1C(O)C(O)C(O)C(O)C1O (stereo not drawn) [Epi-cyclohexanehexol, 1,2,3,4,5/6-(epi-) cyclohexanehexol, reference compound]
Spatial learning performance (Morris Water Maze) compared to untreated TgCRND8 littermates (TgCRND8 mice [5]; TgCRND8 mice): not significantly different from that of untreated TgCRND8 littermates
